Test system: single-round infectious HIV-1 reporter virus
Test: microbe, parasite or virus in culture
Type: cell-based
Conditions: for EC50: Human immunodeficiency virus 1, HeLa-CD4/CCR5; for inhibition at 10 µM: Human immunodeficiency virus 1, HeLa-CD4/CCR5, 72 h, read-out: Average % inhibition at or <10 μM; for Average % inhibition at or <10 μM: HeLa CD4 CCR5 cells, luciferase expression 3 days (72 hours) after infection, compounds tested below 10 μM: % inhibition at 10 μM extrapolated with XLfit, mean of at least two experiments

Compound: C[C@@H]1CN(C(=O)c2ccccc2)CCN1C(=O)C(=O)c1c[nH]c2nccc([N+](=O)[O-])c12 [Compound 18a, (R)-N-(benzoyl)-3-methyl-N′-[(4-nitro-7-azaindol-3-yl)-oxoacetyl]-piperazine]
- EC50: 1000 to 5000 nM
- inhibition at 10 µM: 80%

Compound: C[C@@H]1CN(C(=O)c2ccccc2)CCN1C(=O)C(=O)c1c[nH]c2nccc(NO)c12 [Compound 19a, (R)-N-(benzoyl)-3-methyl-N′-[(4-hydroxylamino-7-azaindol-3-yl)-oxoacetyl]-piperazine]
- EC50: < 1000 nM
- inhibition at 10 µM: 98%

Compound: C[C@@H]1CN(C(=O)c2ccccc2)CCN1C(=O)C(=O)c1c[nH]c2nccc(N)c12 [Compound 20a, (R)-N-(benzoyl)-3-methyl-N′-[(4-amino-7-azaindol-3-yl)-oxoacetyl]-piperazine]
- EC50: < 1000 nM
- inhibition at 10 µM: 95%

Compound: C[C@@H]1CN(C(=O)c2ccccc2)CCN1C(=O)C(=O)c1cn(C)c2ncccc12 [Compound 21a, (R)-N-(benzoyl)-3-methyl-N′-[(1-methyl-7-azaindol-3-yl)-oxoacetyl]-piperazine]
- EC50: < 1000 nM
- inhibition at 10 µM: 70%

Compound: C=CCn1cc(C(=O)C(=O)N2CCN(C(=O)c3ccccc3)C[C@H]2C)c2cccnc21 [Compound 21b, (R)-N-(benzoyl)-3-methyl-N′-[(1-allyl-7-azaindol-3-yl)-oxoacetyl]-piperazine]
- EC50: < 1000 nM
- inhibition at 10 µM: 95%

Compound: C[C@@H]1CN(C(=O)c2ccccc2)CCN1C(=O)C(=O)c1c[nH]c2c(N(C)C)nccc12 [Compound 27c, (R)-N-(benzoyl)-3-methyl-N′-[(7-dimethylamino-6-azaindol-3-yl)-oxoacetyl]-piperazine]
- EC50: < 1000 nM
- inhibition at 10 µM: 63%

Compound: COc1cncc2[nH]cc(C(=O)C(=O)N3CCN(C(=O)c4ccccc4)CC3)c12 [Compound 39, N-(benzoyl)-N′-[(4-methoxy-6-azaindol-3-yl)-oxoacetyl]-piperazine]
- EC50: < 1000 nM

Compound: (R)-N-(benzoyl)-3-methyl-N′-[(4 or 6)-5phenyl-7-azaindol-3-yl)-oxoacetyl]-piperazine [Compound 11b]
- Average % inhibition at or <10 μM: 85%

Compound: (R)-N-(benzoyl)-3-methyl-N′-[(4 or 6)-methyl-7-azaindol-3-yl)-oxoacetyl]-piperazine [Compound 11a]
- Average % inhibition at or <10 μM: 99%

Compound: (R)-N-(benzoyl)-3-methyl-N′-[(4 or 6)-vinyl-7-azaindol-3-yl)-oxoacetyl]-piperazine [Compound 11c]
- Average % inhibition at or <10 μM: 48%

Compound: N-(pyridin-2-yl)-N′-[(7-azaindol-3-yl)-oxoacetyl]-piperazine [Compound 5j]
- Average % inhibition at or <10 μM: 90%

From patent US6476034B2, “Antiviral azaindole derivatives” (priority 2000, dated 2002)
